System: Min6 cell
Test: Insulin secretion response of beta cell line to formula I compounds (insulin ELISA)
Type: cell-based
Conditions: rank according to % increase versus control at most effective dose
Experimental: The secretory responses of beta cell lines to glucose were tested as described in Merglen et al. Endocrinology, (2004) 145(2):667-78.
Briefly, after incubation with compounds from formula I or control vehicle, cells were maintained for 2 hours in glucose-free culture medium. The cells were then washed twice and preincubated for 30 minutes at 37° C. in glucose-free Krebs-Ringer bicarbonate HEPES buffer (KRBH: 135 mM NaCl, 3.6 mM KCl, 5 mM NaHCO3, 0.5 mM NaH2PO4, 0.5 mM MgCl2, 1.5 mM CaCl2, and 10 mM HEPES, pH 7.4). BSA (0.1%) was added as an insulin carrier. Cells were subsequently washed with glucose-free KRBH and then incubated for 30 minutes at 37° C. in KRBH containing different concentrations of glucose. The reaction was stopped by placing the plates on ice; supernatants were collected to determine insulin secretion and cells were used for intracellular insulin content following acid-ethanol extraction. Insulin was measured by ELISA (Linco) according to the manufacturer's instructions.

Row | Compound | Insulin secretion (Min6 cell) Range 1 to 5
1 | O=C(CN1CCC(=O)N(C2CC2)Cc2cc(F)ccc21)c1ccc(OC(F)(F)F)cc1 [Compound 42, 5-cyclopropyl-8-fluoro-1-(2-oxo-2-(4-(trifluoromethoxy)phenyl)ethyl)-2,3,5,6-tetrahydrobenzo[b][1,5]diazocin-4(1H)-one] | 1 (1: 90-110% of control)
2 | O=C(CN1CCC(=O)N(C2CC2)Cc2cc(F)ccc21)c1ccc(F)c(F)c1 [Compound 43, 5-cyclopropyl-1-(2-(3,4-difluorophenyl)-2-oxoethyl)-8-fluoro-2,3,5,6-tetrahydrobenzo[b][1,5]diazocin-4(1H)-one] | 2 (2: 110-120% of control)
3 | O=C(CN1CCC(=O)N(C2CC2)Cc2cc(F)ccc21)c1ccc(Cl)cc1 [Compound 44, 1-(2-(4-chlorophenyl)-2-oxoethyl)-5-cyclopropyl-8-fluoro-2,3,5,6-tetrahydrobenzo[b][1,5]diazocin-4(1H)-one] | 1 (1: 90-110% of control)
4 | COc1ccc(OC)c(C(O)CN2CCC(=O)N(C3CC3)Cc3cc(F)ccc32)c1 (stereo not drawn) [Compound 45, 5-cyclopropyl-1-(2-(2,5-dimethoxyphenyl)-2-hydroxyethyl)-8-fluoro-2,3,5,6-tetrahydrobenzo[b][1,5]diazocin-4(1H)-one] | 1 (1: 90-110% of control)
5 | O=C1CCN(CC(O)c2ccc(F)cc2)c2ccc(F)cc2CN1C1CC1 (stereo not drawn) [Compound 46, 5-cyclopropyl-8-fluoro-1-(2-(4-fluorophenyl)-2-hydroxyethyl)-2,3,5,6-tetrahydrobenzo[b][1,5]diazocin-4(1H)-one] | 2 (2: 110-120% of control)
6 | O=C1CCN(CC(O)c2cccc(F)c2)c2ccc(F)cc2CN1C1CC1 (stereo not drawn) [Compound 47, 5-cyclopropyl-8-fluoro-1-(2-(3-fluorophenyl)-2-hydroxyethyl)-2,3,5,6-tetrahydrobenzo[b][1,5]diazocin-4(1H)-one] | 2 (2: 110-120% of control)
7 | O=C1CCN(CC(O)c2ccc(OC(F)(F)F)cc2)c2ccc(F)cc2CN1C1CC1 (stereo not drawn) [Compound 48, 5-cyclopropyl-8-fluoro-1-(2-hydroxy-2-(4-(trifluoromethoxy)phenyl)ethyl)-2,3,5,6-tetrahydrobenzo[b][1,5]diazocin-4(1H)-one] | 2 (2: 110-120% of control)
8 | O=C1CCN(CC(O)c2ccc(F)c(F)c2)c2ccc(F)cc2CN1C1CC1 (stereo not drawn) [Compound 49, 5-cyclopropyl-1-(2-(3,4-difluorophenyl)-2-hydroxyethyl)-8-fluoro-2,3,5,6-tetrahydrobenzo[b][1,5]diazocin-4(1H)-one] | 5 (5: >170% of control)
9 | O=C1CCN(CC(O)c2ccc(Cl)cc2)c2ccc(F)cc2CN1C1CC1 (stereo not drawn) [Compound 50, 1-(2-(4-chlorophenyl)-2-hydroxyethyl)-5-cyclopropyl-8-fluoro-2,3,5,6-tetrahydrobenzo[b][1,5]diazocin-4(1H)-one] | 2 (2: 110-120% of control)
10 | COc1ccc(OCC(O)CN2CCC(=O)N(C3CC3)Cc3cc(OC)ccc32)cc1 (stereo not drawn) [Compound 51, 5-cyclopropyl-1-(2-hydroxy-3-(4-methoxyphenoxy)propyl)-8-methoxy-2,3,5,6-tetrahydrobenzo[b][1,5]diazocin-4(1H)-one] | 2 (2: 110-120% of control)
11 | O=C1CCN(CC(O)COc2ccccc2)c2ccc(F)cc2CN1C1CC1 (stereo not drawn) [Compound 52, 5-cyclopropyl-8-fluoro-1-(2-hydroxy-3-phenoxypropyl)-2,3,5,6-tetrahydrobenzo[b][1,5]diazocin-4(1H)-one] | 1 (1: 90-110% of control)
12 | COc1ccc(OCC(O)CN2CCC(=O)N(C3CC3)Cc3cc(F)ccc32)cc1 (stereo not drawn) [Compound 53, 5-cyclopropyl-8-fluoro-1-(2-hydroxy-3-(4-methoxyphenoxy)propyl)-2,3,5,6-tetrahydrobenzo[b][1,5]diazocin-4(1H)-one] | 1 (1: 90-110% of control)
13 | COc1ccc2c(c1)CNC(=O)CCN2 [Compound 54, 8-methoxy-2,3,5,6-tetrahydrobenzo[b][1,5]diazocin-4(1H)-one] | 1 (1: 90-110% of control)
14 | O=C(CN1CCC(=O)N(C2CC2)Cc2cc(F)ccc21)c1ccc2c(c1)OCCO2 [Compound 55, 5-cyclopropyl-1-(2-(2,3-dihydrobenzo[b][1,4]dioxin-6-yl)-2-oxoethyl)-8-fluoro-2,3,5,6-tetrahydrobenzo[b][1,5]diazocin-4(1H)-one] | 2 (2: 110-120% of control)
15 | O=C(CN1CCC(=O)N(C2CC2)Cc2cc(F)ccc21)c1ccc(N2CCCC2)cc1 [Compound 56, 5-cyclopropyl-8-fluoro-1-(2-oxo-2-(4-(pyrrolidin-1-yl)phenyl)ethyl)-2,3,5,6-tetrahydrobenzo[b][1,5]diazocin-4(1H)-one] | 2 (2: 110-120% of control)
16 | COc1ccccc1C(O)CN1CCC(=O)N(C2CC2)Cc2cc(F)ccc21 (stereo not drawn) [Compound 57, 5-cyclopropyl-8-fluoro-1-(2-hydroxy-2-(2-methoxyphenyl)ethyl)-2,3,5,6-tetrahydrobenzo[b][1,5]diazocin-4(1H)-one] | 2 (2: 110-120% of control)
17 | COc1cccc(C(O)CN2CCC(=O)N(C3CC3)Cc3cc(F)ccc32)c1 (stereo not drawn) [Compound 58, 5-cyclopropyl-8-fluoro-1-(2-hydroxy-2-(3-methoxyphenyl)ethyl)-2,3,5,6-tetrahydrobenzo[b][1,5]diazocin-4(1H)-one] | 2 (2: 110-120% of control)
18 | COc1ccc(C(O)CN2CCC(=O)N(C3CC3)Cc3cc(F)ccc32)cc1 (stereo not drawn) [Compound 59, 5-cyclopropyl-8-fluoro-1-(2-hydroxy-2-(4-methoxyphenyl)ethyl)-2,3,5,6-tetrahydrobenzo[b][1,5]diazocin-4(1H)-one] | 2 (2: 110-120% of control)
19 | O=C1CCN(CC(O)c2ccc3c(c2)OCCO3)c2ccc(F)cc2CN1C1CC1 (stereo not drawn) [Compound 60, 5-cyclopropyl-1-(2-(2,3-dihydrobenzo[b][1,4]dioxin-6-yl)-2-hydroxyethyl)-8-fluoro-2,3,5,6-tetrahydrobenzo[b][1,5]diazocin-4(1H)-one] | 2 (2: 110-120% of control)
20 | O=C1CCN(CC(O)c2ccccc2)c2ccc(F)cc2CN1C1CC1 (stereo not drawn) [Compound 61, 5-cyclopropyl-8-fluoro-1-(2-hydroxy-2-phenylethyl)-2,3,5,6-tetrahydrobenzo[b][1,5]diazocin-4(1H)-one] | 3 (3: 120-140% of control)
21 | O=C1CCNc2cnccc2CN1C1CC1 [Compound 62, 5-cyclopropyl-2,3,5,6-tetrahydropyrido[3,4-b][1,5]diazocin-4(1H)-one] | 2 (2: 110-120% of control)
22 | C=CCOc1c(OC)ccc2c1CN(C1CCCC1)C(=O)CCN2CC(=O)O [Compound 63, 2-(7-(allyloxy)-5-cyclopentyl-8-methoxy-4-oxo-3,4,5,6-tetrahydrobenzo[b][1,5]diazocin-1(2H)-yl)acetic acid] | 1 (1: 90-110% of control)
23 | O=C1CCN(CC(O)c2ccc(N3CCCC3)cc2)c2ccc(F)cc2CN1C1CC1 (stereo not drawn) [Compound 64, 5-cyclopropyl-8-fluoro-1-(2-hydroxy-2-(4-(pyrrolidin-1-yl)phenyl)ethyl)-2,3,5,6-tetrahydrobenzo[b][1,5]diazocin-4(1H)-one] | 5 (5: >170% of control)
24 | O=C1CCN(CC(O)COc2ccc(F)cc2)c2ccc(F)cc2CN1C1CC1 (stereo not drawn) [Compound 65, 5-cyclopropyl-8-fluoro-1-(3-(4-fluorophenoxy)-2-hydroxypropyl)-2,3,5,6-tetrahydrobenzo[b][1,5]diazocin-4(1H)-one] | 3 (3: 120-140% of control)
25 | O=C1CCN(C[C@H](O)COCc2ccccc2)c2ccc(F)cc2CN1C1CC1 [Compound 66, (S)-1-(3-(benzyloxy)-2-hydroxypropyl)-5-cyclopropyl-8-fluoro-2,3,5,6-tetrahydrobenzo[b][1,5]diazocin-4(1H)-one] | 1 (1: 90-110% of control)
26 | COc1ccc2c(c1)CN(C1CC1)C(=O)CCN2C[C@H](O)COCc1ccccc1 [Compound 67, (S)-1-(3-(benzyloxy)-2-hydroxypropyl)-5-cyclopropyl-8-methoxy-2,3,5,6-tetrahydrobenzo[b][1,5]diazocin-4(1H)-one] | 3 (3: 120-140% of control)
27 | COc1ccc2c(c1)CN(C1CC1)C(=O)CCN2C[C@@H](O)CO [Compound 68, (R)-5-cyclopropyl-1-(2,3-dihydroxypropyl)-8-methoxy-2,3,5,6-tetrahydrobenzo[b][1,5]diazocin-4(1H)-one] | 3 (3: 120-140% of control)
28 | O=C(c1ccc(F)cc1)N1CCC(=O)N(C2CC2)Cc2cc(F)ccc21 [Compound 69, 5-cyclopropyl-8-fluoro-1-(4-fluorobenzoyl)-2,3,5,6-tetrahydrobenzo[b][1,5]diazocin-4(1H)-one] | 1 (1: 90-110% of control)
29 | O=C(c1cccnc1)N1CCC(=O)N(C2CC2)Cc2cc(F)ccc21 [Compound 70, 5-cyclopropyl-8-fluoro-1-nicotinoyl-2,3,5,6-tetrahydrobenzo[b][1,5]diazocin-4(1H)-one] | 1 (1: 90-110% of control)
30 | O=C(Cc1ccc(F)cc1)N1CCC(=O)N(C2CC2)Cc2cc(F)ccc21 [Compound 71, 5-cyclopropyl-8-fluoro-1-(2-(4-fluorophenyl)acetyl)-2,3,5,6-tetrahydrobenzo[b][1,5]diazocin-4(1H)-one] | 4 (4: 140-170% of control)

— patent publication US8765728B2, “[1,5]-diazocin derivatives” (MelliTech, priority 2009, dated 2014)
